Patent publication US12052991B2, “Substituted pyridinyloxybenzenes and salts thereof and use thereof as herbicidal agents” (Bayer Aktiengesellschaft, priority 2018, dated 2024)

What was measured:
Format in all cases: in vivo
Agrostis tenuis (AGSTE) = assay: Herbicidal early post-emergence action (Table A1); conditions: 1900 g/ha; scored visually 9 to 12 days after treatment; 100% = plants have died, 0% = like control plants
Procedure: (§1) Seeds of monocotyledonous and dicotyledonous weed plants were placed in 96-well microtiter plates in quartz sand and grown in a climatized chamber under controlled growth conditions. 5 to 7 days after sowing, the test plants were treated at the cotyledon stage. The compounds according to the invention, formulated in the form of emulsion concentrates (EC), were applied with a water application rate of the equivalent of 2200 liters per hectare. After the test plants had been left to stand in the climatized chamber for 9 to 12 days under optimum growth conditions, the effect of the preparations was scored visually in comparison to untreated controls. For example, 100% activity=the plants have died, 0% activity=like control plants. Tables A1 to A8 below show the effects of selected compounds of the general formula (I) according to Table 1 on various harmful plants and an application rate corresponding to 1900 g/ha, which were obtained by the experimental procedure mentioned above.

Poa annua (POAAN) [1] = assay: Herbicidal early post-emergence action (Table A3); conditions: 1900 g/ha; scored visually 9 to 12 days after treatment; 100% = plants have died, 0% = like control plants
Procedure: as §1

[2] = tested on: harmful plants AGSTE, DIPTE, LOLPE, MATCH, POAAN, SETVI, STEME and VERPE; assay: Herbicidal early post-emergence action, summary of Tables A1-A8; conditions: application rate of 1900 g of active ingredient per hectare; summary in words
Procedure: as §1, with “plants.” for “plants. Tables A1 to A8 below show the effects of selected compounds of the general formula (I) according to Table 1 on various harmful plants and an application rate corresponding to 1900 g/ha, which were obtained by the experimental procedure mentioned above.”
Tables A1 to A8 below show the effects of selected compounds of the general formula (I) according to Table 1 on various harmful plants and an application rate corresponding to 1900 g/ha, which were obtained by the experimental procedure mentioned above.
As the results of Tables A1-A8 show, compounds no.

[3] = tested on: Echinochloa crus-galli (ECHCG); assay: Herbicidal post-emergence action (Table B1); conditions: 1280 g/ha; rated visually after about 3 weeks; 100% = plants have died, 0% = like control plants
Outline: (§2)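 Activity was scored visually against untreated plants roughly 3 weeks after treatment, 0% meaning like control and 100% plant death. Application was post-emergence onto green parts at the one-leaf stage, as aqueous suspension/emulsion with 0.5% additive, 600 l/ha, delivering 1280 or 320 g/ha to greenhouse plants in sandy loam.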

Poa annua (POAAN) [4] = assay: Herbicidal post-emergence action (Table B3); conditions: rated visually after about 3 weeks, 100% = plants have died, 0% = like control plants
Outline: as §2

[5] = tested on: Abutilon theophrasti (ABUTH); assay: Herbicidal post-emergence action (Table B5); conditions: rated visually after about 3 weeks, 100% = plants have died, 0% = like control plants
Outline: as §2

[6] = tested on: Amaranthus retroflexus (AMARE); assay: Herbicidal post-emergence action (Table B6); conditions: dosage 1280 g/ha; visual rating about 3 weeks after treatment; 100% = plants have died, 0% = like control plants
Outline: as §2

[7] = tested on: Matricaria inodora (MATIN); assay: Herbicidal post-emergence action (Table B7); conditions: rated visually after about 3 weeks, 100% = plants have died, 0% = like control plants
Outline: as §2

Stellaria media (STEME) [8] = assay: Herbicidal post-emergence action (Table B8); conditions: visual rating about 3 weeks after treatment, 100% = plants have died, 0% = like control plants
Outline: as §2

[9] = tested on: Alopecurus myosuroides (ALOMY); assay: Herbicidal post-emergence action (Table B9); conditions: rated visually after about 3 weeks, 100% = plants have died, 0% = like control plants
Outline: as §2

Bassia scoparia (KCHSC) [10] = assay: Herbicidal post-emergence action (Table B11); conditions: dosage 1280 g/ha; visual rating about 3 weeks after treatment; 100% = plants have died, 0% = like control plants
Outline: as §2

Veronica persica (VERPE) [11] = assay: Herbicidal post-emergence action (Table B12); conditions: visual rating about 3 weeks after treatment, 100% = plants have died, 0% = like control plants
Outline: as §2

[12] = tested on: Echinochloa crus-galli (ECHCG); assay: Herbicidal pre-emergence action, test C (Table C1); conditions: dosage 1280 g/ha; visual scoring after about 3 weeks; 100% = plants have died, 0% = like control plants
Outline: (§3)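 Visual percentage damage relative to untreated pots (0% = like control, 100% = dead) was rated roughly 3 weeks after pre-emergence treatment in the greenhouse. Sandy loam pots were sown with weed seeds and covered with soil. The surface was sprayed with WP or EC formulations plus 0.5% additive at 600 L/ha, delivering 1280 or 320 g/ha.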

Poa annua (POAAN) [13] = assay: Herbicidal pre-emergence action, test C (Table C3); conditions: visual scoring after about 3 weeks, 100% = plants have died, 0% = like control plants
Outline: as §3

Setaria viridis (SETVI) = assay: Herbicidal pre-emergence action, test C (Table C4); conditions: dosage 1280 g/ha; visual scoring after about 3 weeks; 100% = plants have died, 0% = like control plants
Outline: as §3

[14] = tested on: Abutilon theophrasti (ABUTH); assay: Herbicidal pre-emergence action, test C (Table C5); conditions: visual scoring after about 3 weeks, 100% = plants have died, 0% = like control plants
Outline: as §3

[15] = tested on: Amaranthus retroflexus (AMARE); assay: Herbicidal pre-emergence action, test C (Table C6); conditions: visual scoring after about 3 weeks, 100% = plants have died, 0% = like control plants
Outline: as §3

[16] = tested on: Matricaria inodora (MATIN); assay: Herbicidal pre-emergence action, test C (Table C7); conditions: visual scoring after about 3 weeks, 100% = plants have died, 0% = like control plants
Outline: as §3

Stellaria media (STEME) [17] = assay: Herbicidal pre-emergence action, test C (Table C8); conditions: visual scoring after about 3 weeks, 100% = plants have died, 0% = like control plants
Outline: as §3

[18] = tested on: Alopecurus myosuroides (ALOMY); assay: Herbicidal pre-emergence action, test C (Table C9); conditions: visual scoring after about 3 weeks, 100% = plants have died, 0% = like control plants
Outline: as §3

[19] = tested on: Digitaria sanguinalis (DIGSA); assay: Herbicidal pre-emergence action, test C (Table C10); conditions: dosage 1280 g/ha; visual scoring after about 3 weeks; 100% = plants have died, 0% = like control plants
Outline: as §3

Bassia scoparia (KCHSC) [20] = assay: Herbicidal pre-emergence action, test C (Table C11); conditions: dosage 1280 g/ha, visual scoring vs untreated controls
Outline: as §3

Veronica persica (VERPE) [21] = assay: Herbicidal pre-emergence action, test C (Table C12); conditions: visual scoring vs untreated controls
Outline: as §3

[22] = tested on: harmful plants ABUTH, AMARE, ECHCG, LOLRI, MATIN, POAAN, SETVI, STEME, ALOMY, DIGSA, KCHSC and VERPE; assay: Herbicidal post-emergence action, summary of Tables B1-B12; conditions: application rate of 1280 or 320 g of active ingredient per hectare; summary in words
Outline: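 Activity scored by eye roughly 3 weeks post-treatment against untreated plants, from 0% (no effect) to 100% (plants dead). Application rates were 1280 or 320 g/ha, as aqueous WP/EC spray plus 0.5% additive at 600 L/ha, onto one-leaf-stage weeds grown 2–3 weeks in sandy loam.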

[23] = tested on: harmful plants ABUTH, AMARE, ECHCG, LOLRI, MATIN, POAAN, SETVI, STEME, ALOMY, DIGSA, KCHSC and VERPE; assay: Herbicidal pre-emergence action (test C), summary of Tables C1-C12; conditions: application rate of 1280 or 320 g of active ingredient per hectare; summary in words
Outline: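 Visual % damage versus untreated plants (0% = like control, 100% = died) was scored after about 3 weeks in the greenhouse. Before emergence, seeds sown in sandy loam got a soil-surface spray of compound as WP or EC plus 0.5% additive, using 600 L/ha water at rates of 1280 or 320 g/ha.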

[24] = tested on: corn (ZEAMX, var. Aventura); assay: Pre-emergence crop plant compatibility (Table E1); conditions: dosage 80 g/ha, scored after about 3 weeks, 0% = like control plants
Excerpt: (§4) Seeds of monocotyledonous and dicotyledonous crop plants were placed in plastic or organic plant pots and covered with soil. The compounds of the invention, formulated in the form of wettable powders (WP) or as emulsion concentrates (EC), were then applied to the surface of the covering soil as aqueous suspension or emulsion with addition of 0.5% additive at a water application rate equivalent to 600 l/ha (converted). After the treatment, the pots were placed in a greenhouse and kept under good growth conditions for the test plants. After about 3 weeks, the effect of the preparations was scored visually in comparison with untreated controls as percentages. For example, 100% activity=the plants have died, 0% activity=like control plants.

[25] = tested on: soybean (GLXMA, var. Sultana); assay: Pre-emergence crop plant compatibility (Table E1); conditions: dosage 80 g/ha, scored after about 3 weeks, 0% = like control plants
Excerpt: as §4

[26] = tested on: wheat (TRZAS, var. Triso); assay: Pre-emergence crop plant compatibility (Table E1); conditions: dosage 80 g/ha, scored after about 3 weeks, 0% = like control plants
Excerpt: as §4

FC(F)(F)c1cncc(-c2ccccc2Oc2ccc(Cl)cn2)c1 [Example 1-73]
100%: Early post-emergence effect against Agrostis tenuis (AGSTE) (Agrostis tenuis (AGSTE))
80%: Early post-emergence effect against Poa annua (POAAN) (Poa annua (POAAN) [1])
very good herbicidal activity: herbicidal activity against the harmful plants of Tables A1-A8 in early post-emergence treatment [2]

Cc1cc(C)c(-c2cc(C(F)F)no2)c(Oc2ccccn2)c1 [Example 1-86]
100%: Post-emergence action against Echinochloa crus-galli (ECHCG) [3] | Post-emergence action against Poa annua (POAAN) (Poa annua (POAAN) [4]; 320 g/ha) | Post-emergence action against Poa annua (POAAN) (Poa annua (POAAN) [4]; 1280 g/ha) | Post-emergence action against Abutilon theophrasti (ABUTH) ([5]; 320 g/ha) | Post-emergence action against Abutilon theophrasti (ABUTH) ([5]; 1280 g/ha) | Post-emergence action against Amaranthus retroflexus (AMARE) [6] | Post-emergence action against Matricaria inodora (MATIN) ([7]; 320 g/ha) | Post-emergence action against Matricaria inodora (MATIN) ([7]; 1280 g/ha) | Post-emergence action against Stellaria media (STEME) (Stellaria media (STEME) [8]; dosage 320 g/ha) | Post-emergence action against Stellaria media (STEME) (Stellaria media (STEME) [8]; dosage 1280 g/ha) | Post-emergence action against Alopecurus myosuroides (ALOMY) ([9]; 320 g/ha) | Post-emergence action against Alopecurus myosuroides (ALOMY) ([9]; 1280 g/ha) | Post-emergence action against Veronica persica (VERPE) (Veronica persica (VERPE) [11]; dosage 320 g/ha) | Post-emergence action against Veronica persica (VERPE) (Veronica persica (VERPE) [11]; dosage 1280 g/ha) | Pre-emergence action against Echinochloa crus-galli (ECHCG) [12] | Pre-emergence action against Poa annua (POAAN) (Poa annua (POAAN) [13]; dosage 1280 g/ha) | Pre-emergence action against Setaria viridis (SETVI) (Setaria viridis (SETVI)) | Pre-emergence action against Abutilon theophrasti (ABUTH) ([14]; dosage 1280 g/ha) | Pre-emergence action against Amaranthus retroflexus (AMARE) ([15]; dosage 320 g/ha) | Pre-emergence action against Amaranthus retroflexus (AMARE) ([15]; dosage 1280 g/ha) | Pre-emergence action against Matricaria inodora (MATIN) ([16]; dosage 1280 g/ha) | Pre-emergence action against Stellaria media (STEME) (Stellaria media (STEME) [17]; dosage 1280 g/ha) | Pre-emergence action against Digitaria sanguinalis (DIGSA) [19] | Pre-emergence action against Bassia scoparia (KCHSC) (Bassia scoparia (KCHSC) [20]) | Pre-emergence action against Veronica persica (VERPE) (Veronica persica (VERPE) [21]; dosage 1280 g/ha)
90%: Post-emergence action against Bassia scoparia (KCHSC) (Bassia scoparia (KCHSC) [10]) | Pre-emergence action against Poa annua (POAAN) (Poa annua (POAAN) [13]; dosage 320 g/ha) | Pre-emergence action against Abutilon theophrasti (ABUTH) ([14]; dosage 320 g/ha) | Pre-emergence action against Matricaria inodora (MATIN) ([16]; dosage 320 g/ha) | Pre-emergence action against Stellaria media (STEME) (Stellaria media (STEME) [17]; dosage 320 g/ha) | Pre-emergence action against Alopecurus myosuroides (ALOMY) ([18]; dosage 320 g/ha) | Pre-emergence action against Alopecurus myosuroides (ALOMY) ([18]; dosage 1280 g/ha) | Pre-emergence action against Veronica persica (VERPE) (Veronica persica (VERPE) [21]; dosage 320 g/ha)
very good herbicidal activity: herbicidal activity against the harmful plants of Tables B1-B12 in post-emergence treatment [22] | herbicidal activity against the harmful plants of Tables C1-C12 in pre-emergence treatment [23]

Cc1cc(F)c(-c2cc(C(F)F)on2)c(Oc2ncc(Cl)cc2F)c1 [Example 1-87]
80%: Early post-emergence effect against Agrostis tenuis (AGSTE) (Agrostis tenuis (AGSTE)) | Early post-emergence effect against Poa annua (POAAN) (Poa annua (POAAN) [1])
very good herbicidal activity: herbicidal activity against the harmful plants of Tables A1-A8 in early post-emergence treatment [2]

Cc1ccc(-c2ccccc2Oc2ncc(Cl)cc2F)nc1 [Example 1-106]
very good herbicidal activity: herbicidal activity against the harmful plants of Tables A1-A8 in early post-emergence treatment [2]
80%: Early post-emergence effect against Poa annua (POAAN) (Poa annua (POAAN) [1])

FC(F)c1cc(-c2ccccc2Oc2ncc(Cl)cn2)on1 [US 2016/ 333000 No. 53]
80%: Crop plant compatibility in pre-emergence, GLXMA (damage to soybean) [25]
50%: Crop plant compatibility in pre-emergence, ZEAMX (damage to corn) [24]
20%: Crop plant compatibility in pre-emergence, TRZAS (damage to wheat) [26]

Fc1cccc(Oc2ncc(Cl)cn2)c1-c1cc(C(F)F)no1 [US 2016/ 333000 No. 144]
100%: Crop plant compatibility in pre-emergence, GLXMA (damage to soybean) [25]
70%: Crop plant compatibility in pre-emergence, TRZAS (damage to wheat) [26]
30%: Crop plant compatibility in pre-emergence, ZEAMX (damage to corn) [24]
